Results from EP1276895B1, “METHOD FOR THE IDENTIFICATION OF ACTIVE SITE PROTEASE INACTIVATORS” (THE UNIVERSITY OF GEORGIA RESEARCH FOUNDATION, INC., priority 2000, dated 2001).
Residues, ends and D or L forms follow the SMILES beside them. *: point of attachment. AFC = O=c1cc(C(F)(F)F)c2ccc(N*)cc2o1; MeOSuc = COC(=O)CCC(=O)*; Cbz = O=C(OCc1ccccc1)*

How the values were obtained:
[1] = test system: purified Taenia solium cysteine protease; test: Substrate cleavage screen of AFC-linked synthetic substrates (Step II), purified protease; assay type: biochemical; details: 1 ug purified protease, 1 ug substrate, Citrate pH 4.9 with 0.01 M cysteine, 18 h, 37 °C
Procedure: In this step, the most efficacious substrate for detection of the cysteine protease (high Kcat substrate) was determined in vitro along with those substrates which were not well cleaved (low kcat substrates). From this point forth, the following conditions refer to all assays: "assay buffer" refers to 0.4 M Citrate, pH 4.9 (the pH optima of the protease). Incubation time was 18 hours at 37°C. These conditions were determined by our preliminary data to be best for kinetic evaluation of the protease. […] The experiments were conducted in […] Borosilicate mini-culture tubes (Fisher Scientific), and a fluorometer (Turner) was employed for detection of AFC cleavage.
Approximately 1 ug (or a proteolytically detectable amount) of the purified target cysteine protease was incubated individually, with 1 ug of each of the available substrates in 500 uL of assay buffer. During this setup, the substrate was pre-incubated in the assay buffer for a short period of time (20 minutes) in order to reach an equilibrated status before the addition of the protease. Cleavage assessments were based upon the property of the protease to cleave synthetic peptide substrates linked at the C-terminus to 7-Amino-4-Trifluoromethyl Coumarin (AFC) as previously described. AFC linked tripeptides, dipeptides, and monopeptides, (with a variety of permutations at P3-P1) were available from Enzyme Systems Products (Livermore, CA), and were used as the source of the subset. Following incubation of enzyme preparations overnight (18 h, 37 °C) with peptide in assay buffer (Citrate, pH 4.9, supplemented with 0.01 M cysteine), free AFC concentrations were measured fluorometrically (excitation 405 nm, emission 505 nm). The proteolytic cleavage released the AFC group, which was measurable as a free molecule by a standard fluorometer and converted into molar quantities, based upon a previously established standard curve. The simplicity of AFC detection by the fluorometer was a key factor which quickened and simplified the procedures.
In the assay, 1 ug of the purified Taenia cysteine protease was added to a saturating amount of Z-Phe-Arg-AFC (4X10^-5 M) in assay buffer. The experiment was conducted in triplicate and repeated at least 5 times until we were certain that variability in AFC cleavage was not statistically significant.
Vmax was calculated for the cleavage of substrates by the purified target protease and Vmax was calculated for substrates cleaved by the crude mix protease using conventional kinetic modeling calculations already described in the art.

[2] = test system: purified Taenia solium cysteine protease; test: Competitor assay of low Vmax substrates (vehicles) against high Vmax substrate cocktails (Step III), purified protease; assay type: biochemical; details: purified protease; for inhibition in the presence of the 1.4% cocktail: 1.4% cocktail = Z-FR-AFC 1X10^-6M; for inhibition with the final cocktail (7.4%): 7.4% cocktail = Z-FR-AFC + Z-FAR-AFC + Z-AAK-AFC + AP-AFC + Z-VLR-AFC, 1X10^-6 M each, vehicle 8X10^-6 M
Procedure: (We employed "Vmax" here although Kcat could also be used). Due to the lower number of substrates, a percentage was not chosen for the "BOTTOM %" " substrates. Alternately, all substrates which were not cleaved as determined by a value of 10 uM/hr or less, were chosen to be tested in this step for competitive ability. From this point forth, the term "vehicle" will represent low Vmax substrates that were capable of inhibiting cleavage of the percent cocktails. In this instance, we tested for "vehicles" which inhibited cleavage of the TOP 1.4% cocktail (they were delivered into the active site). Based upon our results from Step II, the top 1.4% cocktail was composed of Z-Phe-Arg-AFC, the highest cleaved substrate.
(§1) The experiment began with a competitor test between the noncleaved low Vmax substrates and the highest Vmax substrate, Z-Phe-Arg-AFC. Concentrations were varied between the low Vmax substrate and Z-Phe-Arg-AFC, as described above under "refinement of assay" until a relative inhibition profile was obtained.
The mixture was allowed to equilibrate for a period of 30 minutes. Finally, active purified enzyme was added to the tubes at a concentration which was always 50 times less than the concentration of the high and low Vmax substrates, in order to insure saturation conditions. This concentration varied from purification to purification and the amount added depended upon the yield and specific activity of the purified protease.
Positive controls were set up similarly as described for test controls, except that solvent was added in substitution for the low Vmax substrate (in a volume equal to the low Vmax volume addition). All of the substrates could be dissolved in dimethylsulfoxide (DMSO), and therefore, this was the solvent of choice. Negative controls were set up by adding the low Vmax and the high Vmax substrate in a tube without the protease. All potential non-proteolytic induced liberation of AFC was therefore controlled for in this tube (a feature which also insured stability of the AFC substrates, since these substrates will freely liberate AFC when unstable). A tube set will be established for this negative control.
All controls were set up in triplicate, and experiments repeated a minimum of five times. The assays were incubated at 37°C, for 18 hours overnight.
(§2) Percent inhibition was calculated as: %Inhibition =; ((AFC positive for"Y"-AFC negative for"Y")-(AFC test-AFC negative for"Y")X100)/(AFC positive for "Y"-AFC negative for "Y") [formula]
A 2.9% cocktail of the high Vmax substrates was made. This was composed of Z-FR-AFC and the second most cleaved substrate, Z-FAR-AFC. The vehicles promoted from the initial screenings above were again tested for competitive inhibition ability with the new cocktails. Their concentrations were set identically to those which were "fixed" in the previous protocols. In other words, 8X10^-6M of the vehicle was added to the culture tube with 1X10^-6 M of Z-FR-AFC and 1X10^-6 M of Z-FAR-AFC. Active protease was added last at a concentration that was 50 times less than the concentration of the high Vmax substrate (to ensure saturating conditions).
In similar experimental fashion, a 4.4%, 5.9%, and 7.4% cocktail were tested with each of the promising vehicles. Each percentage point represented an increase by one substrate. Each of the individual components in the cocktail were added at 1X10^-6 M each, to 8X10^-6 M of the vehicle. The composition of the cocktails was as follows: 4.4% cocktail: Z-FR-AFC, Z-FAR-AFC, and Z-AAK-AFC (third highest cleaved substrate); 5.9% cocktail: Z-FR-AFC, Z-FAR-AFC, Z-AAK-AFC, and AP-AFC (fourth highest cleaved substrate); 7.4% cocktail: […], Z-FAR-AFC, Z-AAK-AFC, AP-AFC, and Z-VLR-AFC. We stopped at this number of substrates in the cocktail, since confidence was obtained that inhibitory potential of vehicles could be "diluted out."
Finally, a manageable set of candidate vehicles was determined. […]

[3] = test system: Taenia crassiceps cysts; test: Short-term prophylactic protection of BALB/c mice from cysticercosis infection; assay type: in vivo; details: pre-injected two days, 10 T. crassiceps cysts/mouse, dosed daily for four weeks, cysts counted after one month, versus untreated controls
[4] = test system: purified Taenia solium cysteine protease; test: Inhibition assay of protease inactivators against the high Vmax cocktail, EC100 and Ki ranking (Step VII B); assay type: biochemical
Excerpt: Once the protease inactivators were synthesized in the organic laboratory, they were to be tested for the lowest efficacious concentrations at which they induced 100% inhibition of the target protease (EC100). The top percent cocktail that was employed in the final vehicle selection step of Step III was employed as the source of competition for the inhibitors. In this case, this was the […] which was comprised of Z-FR-AFC, Z-FAR-AFC, Z-AP-AFC, Z-AAK-AFC, and Z-VLR-AFC. The final result would be a ranking of transition state candidate protease inactivators with a high ranking directly correlating to a low EC100 value. The following steps describe the assay:
Step A: Initial Screening. To set up the test control, each protease inactivator was first incubated with the […] (which provided the final differentiation of vehicles in Step III). To begin with, the protease inactivator was incubated at a concentration of 3 X 10^-9M in 500 ul of assay buffer ([…], pH 4.9 supplemented with 10mM L-cysteine). This concentration was determined, after a series of inhibitor dilutions identified, to be the best inhibitor concentration at which a differentiation in inhibitor potential could be noted. Next, a concentration equal to 4 X 10^-5M for each of the individual cocktail components, was added to the mix. The components were allowed to equilibrate for a period of 30 minutes. Finally, active purified enzyme was added to the tubes at a concentration which was always at least 50 times less than the concentration of the lowest concentration in the mix (to provide saturating conditions.) This concentration varied from purification to purification and the amount added depended upon the yield and specific activity of the purified protease.
Positive controls were set up similarly as described for test controls, except that solvent was added in substitution for the protease inactivator (in a volume equal to the […] volume addition). All of the protease inactivators could be dissolved in dimethylsulfoxide (DMSO), and therefore, this was the solvent of choice. Negative controls were set up by adding the protease inactivator and the cocktail substrates in a tube, without the protease. All potential non-proteolytic induced liberation of AFC was therefore controlled for in this tube (a feature which also insured stability of the AFC substrates, since these substrates will freely liberate AFC when unstable).
All controls were set up in triplicate, and experiments repeated a minimum of five times. The assays were incubated at 37°C, overnight. Percent inhibition was calculated as: % Inhibition = ((AFC positive for ʺSIʺ-AFC negative for ʺSIʺ)-(AFC test-AFC negative for ʺSIʺ))/(AFC positive for ʺSIʺ-AFC negative for ʺSIʺ) × 100 [formula]
Because of this, a dilution study was required in order to determine a viable ranking. Thus, the concentration of each of the protease inactivators was lowered with a dose response setup until the most efficacious concentration for 100% inhibition (EC100) could be determined. […] The final result of the assay was a ranked candidate list of protease inactivators. A lower EC100 was attributable to a higher ranking and vice-versa.
In order to determine Ki, all of the high Vmax cocktail substrates were employed for Ki determination (since Ki of the inhibitor for the enzyme is the same regardless of the substrate). To insure the highest accuracy, Ki was to be determined upon a minimum of at least three of the high Kcat substrates. Nonlinear fitting and the Dixon plot were both employed to determine Ki of the top ranked protease inactivators. A further plot was constructed using either Eadie Hofstee as well as Hanes to determine the mode of inhibition. These methods were used in order to determine the type of inhibition.

[5] = test system: Taenia solium crude mix; test: Competitor assay of vehicles against high Vmax substrate cocktails (Step III), crude mix; assay type: biochemical
Procedure: Step III for a crude mix proceeds it would for a purified protease, except that Vm is used instead of kcat.
as §1, §2
One of the most intriguing findings in this experiment was that a highly similar inhibition pattern for the competitor assay was noted when the crude mix was employed as the source of the target protease. Although there were some variations in the effects of inhibitor dilution, the most highly ranked vehicles remained inhibitory consistently in comparison to the profile with the target protease. The relative profile and composition of the top tiers of vehicles was identical. Z-LLL-AFC, Z-LLY-AFC, Mu-LY-AFC, Boc-VPR-AFC, Z-SY-AFC, Z-RR-AFC, Z-FLF-AFC, Z-LGR-AFC consistently presented as the top eight vehicles (Fig. 5b), respectively, based upon their V values (Table 2). […] It was notable that the three vehicles had very similar V values. […] As was mentioned, this vehicle along with Z-LLL-AFC and Z-LLY-AFC, were consistently the most inhibitory vehicles. The V values of the most inhibitory vehicle series are shown below in Table 2. Again, a clear break between the first and second tier vehicles could be noted with the V value. Table 2. Vehicles and V value rankings.

COC(=O)CCC(=O)N[C@@H](Cc1ccccc1)C(=O)N[C@@H](CC(C)C)C(=O)N[C@@H](Cc1ccccc1)C(=O)Nc1ccc2c(C(F)(F)F)cc(=O)oc2c1 [MeoSuc-FLF-AFC, reference compound] (MeOSuc-Phe-Leu-Phe-{AFC})
cleavage of AFC-linked substrate (Vmax) [1]: not cleaved

N[C@@H](CCC(=O)O)C(=O)N[C@@H](Cc1ccc(O)cc1)C(=O)Nc1ccc2c(C(F)(F)F)cc(=O)oc2c1 [EY-AFC, reference compound] (H-Glu-Tyr-{AFC})
cleavage of AFC-linked substrate (Vmax) [1]: not cleaved

CC(C)C[C@H](NC(=O)OCc1ccccc1)C(=O)N[C@@H](CCCNC(=N)N)C(=O)N[C@@H](CCCNC(=N)N)C(=O)Nc1ccc2c(C(F)(F)F)cc(=O)oc2c1 [Z-LRR-AFC] (Cbz-Leu-Arg-Arg-{AFC})
inhibition in the presence of the 1.4% cocktail ([2]; vehicle 8X10^-6M): greater than 20%

CC(C)C[C@H](NC(=O)OCc1ccccc1)C(=O)NCC(=O)N[C@@H](CCCNC(=N)N)C(=O)Nc1ccc2c(C(F)(F)F)cc(=O)oc2c1 [Z-LGR-AFC, Z-Leu-Gly-Arg-AFC] (Cbz-Leu-Gly-Arg-{AFC})
cleavage of AFC-linked substrate (Vmax) [1]: noncleavable | inhibition in the presence of the 1.4% cocktail ([2]; vehicle 8X10^-6M): greater than 20% | inhibition with the final cocktail (7.4%) [2]: less than 20%

Leu-Phe-Ketoamide-Pyridyl [K-Pyr, reference compound]
% Prophylactic protection of BALB/c mice [3]: 40% | % Inhibition of T. solium CP in vitro ([4]; in vitro, concentration not stated in Table 4): 80%

N=C(N)NCCC[C@H](NC(=O)OCc1ccccc1)C(=O)N[C@@H](CCCNC(=N)N)C(=O)Nc1ccc2c(C(F)(F)F)cc(=O)oc2c1 [Z-RR-AFC] (Cbz-Arg-Arg-{AFC})
Tier [5]: 2 (The second tier was composed of those vehicles, which produced inhibition between 20-50% inhibition when in the presence of the 1.4% cocktail) | V Value ([5]; V = P * M): 0.09 | inhibition with the final cocktail (7.4%) [2]: less than 20% | V Value ([2]; V = P * M, P = inhibition with first (1.4%) cocktail, M = inhibition with last (7.4%) cocktail, vehicle 8X10^-6M, each cocktail substrate 1X10^-6 M): 0.09

CC(C)C[C@@H](/C=C/S(C)(=O)=O)NC(=O)[C@H](CC(C)C)NC(=O)[C@H](CC(C)C)NC(=O)OCc1ccccc1 [Z-LLL-VS, Z-Leu-Leu-Leu-vinylsulfone]
ranking of protease inactivators by EC100 ([4]; dilution study, nanomolar levels): top inhibitors
